Data reported in US9708247B2, “Modulators of the eIF2alpha pathway” (The Regents of the University of California, priority 2013, dated 2017).
Where two headings read alike, the source gives them in different places.

Tested on: ATF4 luciferase reporter
Assay: ATF4 luciferase reporter assay (Cell-luc) in HEK293T cells
Type: cell-based, human
Settings: read-out: IC50 (nM) Cell-luc
Excerpt: FIGS. 1A-1C. […]
To identify inhibitors of PERK signaling, we engineered a reporter that allows monitoring of PERK activation in living cells. To this end, we constructed a retroviral vector containing the open-reading frame of firefly luciferase fused to the 5′UTR of ATF4 mRNA (FIG. 1A), which contains two short open-reading frames (uORFs) that control ATF4 translation in a stress-dependent manner. After infection, we established a HEK293T cell line harboring the stably integrated reporter. […] This format was used to screen 106,281 compounds covering a wide chemical space. We identified 460 hits (0.43%) (FIG. 1C), which were further validated in an 8-point dose-response assay using the same reporter. We further triaged the compounds by discarding inhibitors that also affected the IRE1 branch of the UPR using an XBP1-luciferase splicing reporter. […] We next used an orthogonal secondary screen that employed a different reporter (bi-cistronic ATF4-dGFPIRES-mCherry) stably integrated into a different cell line (U20S cells). The read-out of this latter screen was microscopy-based, which allowed us to simultaneously assess acute toxicity by cell counting, further reducing the number of viable hits to 77. As a tertiary screen, we tested compounds for their ability to inhibit ER stress-elicited induction of endogenous ATF4 by Western blot analysis. Twenty-eight compounds passed this test and were analyzed further.
ATF4 reporters were constructed by fusing the human full-length ATF4 5′-UTR (NCBI Accession BC022088.2) in front of the firefly luciferase (FLuc) or a destabilized eGFP (dEGFP) coding sequences lacking the initiator methionine.
The ATF4-FLuc reporter was generated by cloning a PCR-product containing the ATF4 full-length 5′-UTR (from +1 position a the transcription start site down to one nucleotide after the terminator codon of the second uORF) flanked by KpnI/XhoI and BglII sites at the 5′ and 3′ ends, respectively, into the KpnI-BglII sites of pCAX-F-XBP1-Luc. The resulting construct, pCAX-ATF4-FLuc, was then digested with BamHI, blunted with T4 DNA polymerase, and then digested with XhoI. The resulting fragment was then subcloned into the retroviral expression vector pLPCX (Clontech) after digesting it with HindIII, blunting with T4 DNA polymerase and then digesting with XhoI to generate pLPCX-ATF4-FLuc (DAA-312). DAA-312 was used to produce recombinant retroviruses using standard methods and the resulting viral supernatant was used to transduce HEK293T cells, which were then subsequently selected with puromycin to generate a stable cell line employed in the primary screen.
HEK293T cells carrying the ATF4 luciferase reporter were plated on poly-lysine coated 384 well plates (Greiner) at 30,000 cells per well. […] Luminescence was measured using One Glo (Promega) as specified by the manufacturer. […] Thus, these were considered unique to the PERK branch and were cherry-picked for further analysis.

[1] = Homo sapiens, HEK-293T, ATF4 luciferase reporter, HEK293T cells
[2] = ATF4 luciferase reporter, HEK293T cells

Row | Compound | IC50 [1] [nM] | other results
1 | O=C(COc1ccc(Cl)cc1)N[C@H]1CC[C@H](NC(=O)COc2ccc(Cl)cc2C(=O)c2ccccc2)CC1 [compound 873973] | > 10000 | 
2 | O=C(COc1ccc(Cl)cc1)NCc1ccc(CNC(=O)COc2ccc(Cl)cc2)cc1 [compound 874796] | > 10000 | 
3 | O=C(COc1ccc(Cl)cc1)N[C@H]1CC[C@H](NC(=O)OCc2ccc(Cl)cc2)CC1 [compound 874797] | 122 | 
4 | CC(Oc1ccc(Cl)cc1)C(=O)N[C@H]1CC[C@H](NC(=O)COc2ccc(Cl)cc2)CC1 (stereo partly drawn) [compound 874799] | 210 | 
5 | O=C(COc1ccc(Cl)cc1)N[C@H]1CC[C@H](NC(=O)COc2ccc(Cl)c([N+](=O)[O-])c2)CC1 [compound 874804] |  | IC50 [2]: 3 nM
6 | Clc1ccccc1CNC[C@H]1CC[C@H](CNCc2ccccc2Cl)CC1 [compound 874805] | > 10000 | 
7 | O=C(Cc1ccc(Cl)cc1)NCc1ccc(CNC(=O)Cc2ccc(Cl)cc2)cc1 [compound 885253] | > 10000 | 
8 | O=C(NCc1ccc(CNC(=O)Oc2ccc(Cl)cc2)cc1)Oc1ccc(Cl)cc1 [compound 885254] | > 10000 | 
9 | O=C(COc1ccc(Cl)cc1)N[C@H]1CC[C@H](CNC(=O)Oc2ccc(Cl)cc2)CC1 [compound 885255] | 30 | 
10 | O=C(Cc1ccc(Cl)cc1)NC[C@H]1CC[C@H](NC(=O)COc2ccc(Cl)cc2)CC1 [compound 885256] | 152 | 
11 | O=C(N[C@H]1CC[C@H](NC(=O)OCc2ccc(Cl)cc2)CC1)OCc1ccc(Cl)cc1 [compound 885257] | > 10000 | 
12 | O=C(NC[C@H]1CC[C@H](CNC(=O)Oc2ccc(Cl)cc2)CC1)Oc1ccc(Cl)cc1 [compound 913815] | > 10000 | 
13 | C[Si](C)(C)C#Cc1cc(OCC(=O)N[C@H]2CC[C@H](NC(=O)COc3ccc(Cl)cc3)CC2)ccc1Cl [compound 914583] | 12 | 
14 | C[Si](C)(C)C#Cc1ccc(OCC(=O)N[C@H]2CC[C@H](NC(=O)COc3ccc(Cl)cc3)CC2)cc1 [compound 916348] | 160 | 
15 | C[C@@H]1NC(=O)N[C@@H]1CCCCCC(=O)NCCOCCOCCOCCn1cc(-c2ccc(OCC(=O)N[C@H]3CC[C@H](NC(=O)COc4ccc(Cl)cc4)CC3)cc2)nn1 [compound 916727] | 520 | 
16 | C[C@@H]1NC(=O)N[C@@H]1CCCCCC(=O)NCCOCCOCCOCCn1cc(-c2cc(OCC(=O)N[C@H]3CC[C@H](NC(=O)COc4ccc(Cl)cc4)CC3)ccc2Cl)nn1 [compound 916728] | 1270 | 

Row | Compound | IC50 [1] [nM] | other results
17 | O=C(COc1ccc(I)cc1)N[C@H]1CC[C@H](NC(=O)COc2ccc(C3(C(F)(F)F)NN3)cc2)CC1 [compound 916744] |  | IC50 (Homo sapiens, HEK-293T): > 10000 nM
18 | C#Cc1ccc(OCC(=O)N[C@H]2CC[C@H](NC(=O)COc3ccc(C4(C(F)(F)F)N=N4)cc3)CC2)cc1 [compound 916751] | > 10000 | 
19 | O=C(COc1ccc(I)cc1)N[C@H]1CC[C@H](NC(=O)COc2ccc(I)cc2)CC1 [compound 916784] | 51 | 
20 | C[Si](C)(C)C#Cc1ccc(OCC(=O)N[C@H]2CC[C@H](NC(=O)COc3ccc(C#C[Si](C)(C)C)cc3)CC2)cc1 [compound 916785] | > 10000 | 
21 | C#Cc1ccc(OCC(=O)N[C@H]2CC[C@H](NC(=O)COc3ccc(C#C)cc3)CC2)cc1 [compound 916786] | 158 | 
22 | O=C(CCCC[C@H]1SC[C@@H]2NC(=O)N[C@@H]21)NCCCCCOC(=O)CCCCCn1cc(-c2ccc(OCC(=O)N[C@H]3CC[C@H](NC(=O)COc4ccc(Cl)cc4)CC3)cc2)nn1 [compound 916846] | 200 | 
23 | O=C(CCCC[C@H]1SCC2NC(=O)NC21)NCCCCCOC(=O)CCCCCn1cc(-c2cc(OCC(=O)N[C@H]3CC[C@H](NC(=O)COc4ccc(Cl)cc4)CC3)ccc2Cl)nn1 (stereo partly drawn) [compound 916847] | 900 | 
24 | C#Cc1ccc(OCC(=O)N[C@H]2CC[C@H](NC(=O)COc3ccc(Cl)c(C4(C(F)(F)F)N=N4)c3)CC2)cc1 [compound 955278] | > 10000 | 
25 | C#Cc1ccc(OCC(=O)N[C@H]2CC[C@H](NC(=O)COc3ccc(N=[N+]=[N-])cc3)CC2)cc1 [compound 957866] |  | IC50 [2]: 232 nM
26 | O=C(COc1ccc(Cl)c(Cl)c1)N[C@H]1CC[C@H](NC(=O)COc2ccc(Cl)c(Cl)c2)CC1 [compound 957885] | 0.8 | 
27 | Cc1cc(OCC(=O)N[C@H]2CC[C@H](NC(=O)COc3ccc(Cl)c(C)c3)CC2)ccc1Cl [compound 957886] | 3 | 
28 | O=C(COc1ccc(Cl)c(C(F)(F)F)c1)N[C@H]1CC[C@H](NC(=O)COc2ccc(Cl)c(C(F)(F)F)c2)CC1 [compound 957887] | 11 | 
29 | O=C(COc1ccc(Cl)c([N+](=O)[O-])c1)N[C@H]1CC[C@H](NC(=O)COc2ccc(Cl)c([N+](=O)[O-])c2)CC1 [compound 957889] |  | IC50 [2]: 11 nM
30 | N=C(COc1ccc(Cl)c(Cl)c1)N[C@H]1CC[C@H](NC(=O)COc2ccc(Cl)c(Cl)c2)CC1 [compound 957914] | 40 | 
31 | N=C(COc1ccc(Cl)c(F)c1)N[C@H]1CC[C@H](NC(=O)COc2ccc(Cl)c(F)c2)CC1 [compound 957915] |  | IC50 [2]: 344 nM
32 | N=C(COc1ccc(Cl)c(F)c1)N[C@H]1CC[C@H](NC(=O)COc2ccc(Cl)c(F)c2)CC1 [compound 957916] |  | IC50 [2]: 122 nM

Further lines, with some results ahead:

Row | IC50 [1] [nM] | Compound | other results
33 | > 10000 | CC(=O)c1cc(Cl)ccc1OCC(=O)N[C@H]1CC[C@H](NC(=O)COc2ccc(Cl)cc2)CC1 [compound 873972] | 
34 | 200 | CC(C)c1ccc(OCC(=O)N[C@H]2CC[C@H](NC(=O)COc3ccc(Cl)cc3)CC2)cc1 [compound 874798] | 
35 | 2 | O=C(COc1ccc(Cl)cc1)N[C@H]1CC[C@H](NC(=O)COc2ccc(Cl)c(Cl)c2)CC1 [compound 874800] | 
36 | 2.4 | Cc1cc(OCC(=O)N[C@H]2CC[C@H](NC(=O)COc3ccc(Cl)cc3)CC2)ccc1Cl [compound 874801] | 
37 | 2 | O=C(COc1ccc(Cl)cc1)N[C@H]1CC[C@H](NC(=O)COc2ccc(Cl)c(F)c2)CC1 [compound 874802] | 
38 | 4 | O=C(COc1ccc(Cl)cc1)N[C@H]1CC[C@H](NC(=O)COc2ccc(Cl)c(C(F)(F)F)c2)CC1 [compound 874803] | 
39 | 125 | O=C(COc1ccc(Cl)cc1)N[C@H]1CC[C@H](NC(=O)COc2cccc(F)c2)CC1 [compound 912562] | 
40 | 334 | O=C(COc1ccc(Cl)cc1)N[C@H]1CC[C@H](NC(=O)COc2cccc(F)c2F)CC1 [compound 912563] | 
41 | 220 | O=C(COc1ccc(Cl)cc1)N[C@H]1CC[C@H](NC(=O)COc2cc(F)cc(F)c2)CC1 [compound 912564] | 
42 | > 10000 | O=C(COc1ccc(Cl)cc1)N[C@H]1CC[C@H](NC(=O)COc2cc(Cl)cc(Cl)c2)CC1 [compound 912565] | 
43 | 149 | CC(=O)c1cc(OCC(=O)N[C@H]2CC[C@H](NC(=O)COc3ccc(Cl)cc3)CC2)ccc1Cl [compound 912566] | 
44 | 5.2 | O=C(COc1ccc(Cl)cc1)N[C@H]1CC[C@H](NC(=O)COc2ccc(Cl)c(I)c2)CC1 [compound 914582] | 
45 | 12 | C#Cc1cc(OCC(=O)N[C@H]2CC[C@H](NC(=O)COc3ccc(Cl)cc3)CC2)ccc1Cl [compound 914584] | 
46 | 5.6 | O=C(COc1ccc(Cl)cc1)N[C@H]1CC[C@H](NC(=O)COc2ccc(I)cc2)CC1 [compound 914989] | 
47 | 14 | C#Cc1ccc(OCC(=O)N[C@H]2CC[C@H](NC(=O)COc3ccc(Cl)cc3)CC2)cc1 [compound 916353] | 
48 | 0.6 | O=C(COc1ccc(Cl)c(F)c1)N[C@H]1CC[C@H](NC(=O)COc2ccc(Cl)c(F)c2)CC1 [compound 957888] | 
